Experimental data as given in patent US10869834B2, “Treatment of inflammatory bowel disease” (University College Dublin, National University of Ireland, …, priority 2016, dated 2020).

What was measured:
[1] = system: bacterial phosphotyrosine content; conditions: 0.7 mM H2O2, 3 h; when iron is present; 5% O2
Experimental: C. jejuni 81-176, L. monocytogenes EGDe and K. pneumoniae were grown microaerophilic to mid-log phase in minimal essential media. Bacteria were collected by centrifugation (5000 rpm, 10 min) and diluted to OD600=0.2 in MEM. Iron (II) sulfate (40 μM) was added as indicated and cultures were grown microaerophilic until OD600=0.5 was reached. To C. jejuni 81-176 cultures 5 mM H2O2 was added and the growth continued microaerophilic for 8 h. L. monocytogenes and K. pneumoniae cultures were exposed to 0.7 mM H2O2 for 3 h in microaerophilic conditions. Bacteria were then diluted to OD600=0.2, collected by centrifugation, washed twice with 25 mM Tris-HCl, resuspended in 30 μl Laemmli buffer and heated for 5 min at 95° C. Boiled samples were loaded on 10% SDS-PAGE gels, separated by electrophoresis and immunoblotted. The control samples followed an identical protocol without supplemental iron or added H2O2.

[2] = system: S. pneumoniae; conditions: bacteria pretreated with 0.7 mM H2O2 for 3 h
Experimental: Biofilm was analyzed using SYTO9. Cultured bacteria were grown in microaerophilic conditions overnight. The bacterial culture was then adjusted to OD600=0.1 and 1 ml of this solution was added to an optical grade plastic bottom μ-plate 24 well. Bacteria were incubated for an additional 72 h in microaerophilic conditions. Bacteria were washed gently with autoclaved water to remove planktonic cells and fixed with 3% paraformaldehyde in PBS for 1 h. Images were then analyzed for total intensity of SYTO9 fluorescence over the imaged volumes using Fiji. Briefly, after staining with SYTO9, 50 independent 13.2 μm stacks of 60 images at a 0.22 μm Z resolution were imaged for all conditions. The mean fluorescence of the different slices in the stacks was measured and a standard deviation was computed from the aggregated data per slice.

[3] = system: murine colitis (3% DSS); experiment: In-vivo murine colitis model (3% DSS), administration of H2O2-producing bacteria; set-up: species or system mice
Experimental: Wildtype mice were treated with 1×10^9 bacteria by daily oral gavage 5 days before, during colitis (3% DSS in water) and until the end of the experiment (day 16). On day 7 of DSS treatment, DSS was replaced with water to enable the healing process. […] One-way Anova with Tukey post-hoc test; **p=0.01, ***p=0.001.

[4] = system: C. rodentium; experiment: C. rodentium infection of mice treated with L. johnsonii by oral gavage; format: in vivo, C57Bl/6 mice; conditions: daily oral gavage with NCC533 or NCC9359 prior and during infection; 6 dpi
Experimental: Cyba^flox/flox mice were bred to B6.SJL-Tg (Vil-cre) 997Gum/J mice (Jackson Laboratories) to generate mice with a targeted deletion of p22^phox in the epithelium of the small intestine and colon (p22ΔIEC). Mice were infected by oral gavage with 0.3 ml of an overnight culture of Luria Bertani broth containing 5×10^9 Citrobacter rodentium and analyzed at day 6 post infection. L. johnsonii NCC533/NCC9359 pretreatment and treatment: L. johnsonii NCC533 and NCC9359 strains were administered at a concentration of 10^9 CFU to WT mice via oral gavage starting 3 days prior C. rodentium inoculation and daily during C. rodentium infection. For histopathology Carnoy-fixed distal colons were embedded in paraffin and 5 μm sections were stained with hematoxylin and eosin (H&E).

[5] = system: mucus secretion; conditions: Birchenough G. et al., Science 352:1535-1542; cited from earlier work
[6] = system: L. monocytogenes
Experimental: (§1) Invasion and adhesion assays were performed as previously reported (Cell Host Microbe 12:47-59, 2012). Bacterial cell viability was assessed using the XTT (2,3-Bis-(2-Methoxy-4-Nitro-5-Sulfophenyl)-2H-Tetrazolium-5-Carboxanilide) assay. For in vitro experiments bacteria were exposed at time zero once to 0.7 mM H2O2, except for C. jejuni (5 mM), and analyzed after indicated time periods (up to 3 h, except C. jejuni up to 6 h).

[7] = system: S. pneumoniae; conditions: 0.7 mM H2O2 for 3 h
Experimental: as §1

[8] = system: C. rodentium; conditions: single bolus of 1 mM H2O2 in DMEM, analysed 3 h later
Experimental: as §1

[9] = system: L. monocytogenes; conditions: Cos-NOX4 cell-produced H2O2 vs Cos-p22
Experimental: Exposure of bacteria to H2O2 released by Cos cells stable expressing the NOX4-p22^phox complex or as negative control Cos cells expressing only p22^phox was performed using Boyden chambers. Cells in DMEM, 10% FBS medium were seeded into the bottom chamber 24 h before start of the experiment and then moved to microaerophilic conditions for 3 h. Bacteria grown in microaerophilic conditions were resuspended in 5% O2 conditioned DMEM, 3-10% FBS medium, placed on top of the filter (3 μm pore size) and incubated for 3 h. Bacteria were harvested from the filter for analysis.

[10] = system: EPEC; conditions: H2O2 released from Cos-NOX4 cells (not Cos-p22) for 3 h; separated by a filter
Experimental: (§2) Cos-NOX4 and Cos-p22 cells in DMEM, 5% FBS (Cell Signal 18:69-82, 2006; J Biol Chem 283:35273-82, 2008; Mol Cell Biol 30:961-75, 2010) were seeded into the lower chamber of a Boyden chamber (pore width 0.4 μm) 48 h before the assay. Lactobacilli grown in DMEM were suspended in media onto the upper chamber. Co-culture was initiated for 3-4 h in DMEM, 5% FBS media followed by harvesting of bacteria on the filter for RNA isolation.

[11] = system: C. rodentium; conditions: H2O2 generated by Cos-NOX4 cells vs Cos-p22 negative control; 4 h, DMEM; separated by a filter; n=4
Experimental: as §2

[12] = system: bacterial phosphotyrosine signalling; conditions: H2O2 generated by colon cells, human biopsies and rabbit loop model during pathogen exposure; co-culture 3 h
Experimental: Bacteria in RPMI 1640 containing 3% FBS (OD600=0.4; 10^7 bacteria, 1 ml) were incubated with HCT-8 cells at 37° C. in microaerophilic conditions with MOI 50. DPI pretreatment of HCT-8 cells was for 20 min (25 μM). Non-adherent bacteria were removed by centrifugation of media (3300 g, 5 min), and were used for immunoblotting. […] Exposure of bacteria to H2O2 released by Cos cells stable expressing the NOX4-p22^phox complex or as negative control Cos cells expressing only p22^phox was performed using Boyden chambers. Cells in DMEM, 10% FBS medium were seeded into the bottom chamber 24 h before start of the experiment and then moved to microaerophilic conditions for 3 h. Bacteria grown in microaerophilic conditions were resuspended in 5% O2 conditioned DMEM, 3-10% FBS medium, placed on top of the filter (3 μm pore size) and incubated for 3 h. Bacteria were harvested from the filter for analysis.
Polarized In Vitro Organ Culture (pIVOC): pIVOC experiments of colon biopsies were performed as described (Cell Host Microbe 12:47-59, 2012). Bacterial infections were conducted using microaerophilic preconditioned media or buffers. L. monocytogenes was added at a final OD600=0.2 to the apical side of biopsies and H2O2 release was measured. Controls were either non-infected biopsies or biopsies pretreated with 20 μM DPI for 20 min before addition of C. jejuni or L. monocytogenes to the top chamber. […]

[13] = daily oral gavage 5 days before, during colitis and until day 16
[14] = bacteria pretreated with 0.7 mM H2O2 for 3 h

For `OO` [H2O2, hydrogen peroxide], the “bacterial phosphotyrosine content (anti-phosphotyrosine immunoblots)” value [1] was “decreases bacterial phosphotyrosine content”, the “biofilm formation (mean SYTO9 fluorescence)” value [2] was “Reduced biofilm formation” and the “recovery after insult (disease index, body weight)” value ([3]; daily administration, low nanomolar H2O2 (via NCC533, 1x10^9 bacteria oral gavage), DSS replaced with water on day 7) was “accelerates recovery after insult”. The “inflammation (colon length as indicator)” value [3, 13] was “downregulates inflammation”, the “tissue restitution (H&E staining of colon day 11)” value [3, 13] was “supports rapid tissue restitution” and the “host epithelial tissue damage (H&E staining of colon sections)” value [4] was “required to prevent host epithelial tissue damage”. The mucus secretion [5] was “can restore mucus secretion”, the “bacterial viability after treatment” value ([6]; 0.7 mM H2O2 for 3 h) was “remained fully viable” and the “adherence to HCT-8 colon cells” value [6, 14] was “reduced”. For the same compound, the “invasion of HCT-8 colon cells” value [6, 14] was “reduced”, the “bacterial viability after treatment” value [7] was “remained fully viable” and the “ler expression in C. rodentium (qPCR)” value [8] was “Downregulation of ler”. For the same compound, the “bacterial phosphotyrosine content (anti-phosphotyrosine immunoblot)” value [9] was “marked decrease in bacterial phosphotyrosine content”, the “ler and escN expression in EPEC (qPCR)” value [10] was “Downregulation of LEE island genes” and the “ler and escN expression in C. rodentium (qPCR)” value [11] was “Downregulation of LEE island genes”. For the same compound, the “bacterial phosphotyrosine signalling (anti-phosphotyrosine immunoblots)” value [12] was “downregulates bacterial phosphotyrosine signalling”.
